molecular target: PAR1 (Homo sapiens (Human), UniProt P25116); assay: Par-1 FLIPR assay (calcium, HEK 293 cells, PAR1 activating peptide); assay type: cell-based; conditions: PAR1 selective receptor-activating peptide at 80% activation
Method: HEK 293 Cells were grown in media containing DMEM, 10% FBS pen/strep/L-Glutamine and non-essential amino acids. The cells were plated in 384-well PDL coated plates at 12000 cells/well and incubated overnight at 37° C./5% CO2. Media was then removed from the cells, which were then incubated with buffer (Hank's containing HEPES and Chaps) containing FLIPR calcium-5 dye, made with buffer containing probenecid, for 60 minutes at 37° C. Varying concentrations of compound in a final concentration of 5% DMSO were then added to the cells and incubated at 25° C. for 30 minutes. […] The FLIPR reads at an excitation wavelength of 480 nm and an emission wavelength of 535 nm, and performs 60 scans over a 1-2 min reading time. The data were analyzed by taking the peak signal over a portion of the range of the 60 scans and dividing this signal by the minimum signal for that same range.

Chain of PAR1 (P25116 22-425): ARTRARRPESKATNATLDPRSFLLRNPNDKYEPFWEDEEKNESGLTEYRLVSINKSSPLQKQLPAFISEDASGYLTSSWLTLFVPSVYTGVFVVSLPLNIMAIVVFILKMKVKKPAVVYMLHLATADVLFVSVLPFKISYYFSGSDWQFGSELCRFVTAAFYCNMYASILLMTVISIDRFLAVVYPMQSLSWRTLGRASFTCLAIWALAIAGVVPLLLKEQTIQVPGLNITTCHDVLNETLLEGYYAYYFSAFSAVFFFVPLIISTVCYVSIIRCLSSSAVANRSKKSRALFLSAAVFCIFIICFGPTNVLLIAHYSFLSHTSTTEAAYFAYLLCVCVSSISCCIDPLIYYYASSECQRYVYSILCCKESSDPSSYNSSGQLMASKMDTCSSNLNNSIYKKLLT

| SMILES | IC50 [nM] |
| --- | --- |
| C[C@H]1OC(=O)[C@]2(NCC(O)CCl)CC(F)(F)[C@@H](C)[C@H](/C=C/c3ccc(-c4ccccc4C#N)cn3)[C@H]12 (stereo partly drawn) [Example 52] | 4.3 |
| Cc1nnnn1[C@@]12CC(F)(F)[C@@H](C)[C@H](/C=C/c3ccc(-c4ccccc4C#N)cn3)[C@@H]1[C@@H](C)OC2=O [Example 34] | 6.4 |
| C[C@H]1OC(=O)[C@]2(S(C)(=O)=O)CC(F)(F)[C@@H](C)[C@H](/C=C/c3ccc(-c4ccccc4C#N)cn3)[C@H]12 [Example 70] | 15.6 |
| CC1[C@H](/C=C/c2ccc(-c3ccccc3C#N)cn2)C2[C@@H](C)OC(=O)[C@]2(NCc2ncco2)CC1(F)F (stereo partly drawn) [Example 41] | 6.5 |
| CC1[C@H](/C=C/c2ccc(-c3ccccc3C#N)cn2)C2[C@@H](C)OC(=O)[C@@]2(NC(=O)c2ccn(C)n2)CC1(F)F (stereo partly drawn) [Example 67] | 3.7 |
| C[C@H]1OC(=O)[C@]2(O)CC(F)(F)[C@@H](C)[C@H](/C=C/c3ccc(-c4ccccc4OC(F)(F)F)cn3)[C@H]12 [Example 9] | 4.5 |
| COC(=O)[C@@]12CC(F)(F)[C@@H](C)[C@H](/C=C/c3ccc(-c4cccc(F)c4)cn3)[C@@H]1[C@@H](C)OC2=O [Example 11] | 3.4 |
| C[C@H]1OC(=O)[C@]2(Br)CC(F)(F)[C@@H](C)[C@H](/C=C/c3ccc(-c4ccccc4C#N)cn3)[C@H]12 [Example 71] | 4.8 |
| C[C@H]1OC(=O)[C@]2(NCc3cncnc3)CC(F)(F)[C@@H](C)[C@H](/C=C/c3ccc(-c4ccccc4C#N)cn3)[C@H]12 [Example 47] | 5.7 |
| CC1[C@H](/C=C/c2ccc(-c3ccccc3C#N)cn2)C2[C@@H](C)OC(=O)[C@]2(NCc2ccncc2)CC1(F)F (stereo partly drawn) [Example 40] | 3.9 |
| C[C@H]1OC(=O)C2CC(F)(F)[C@@H](C)[C@H](/C=C/c3ccc(-c4ccccc4Cl)cn3)C21 (stereo partly drawn) [Example 4] | 2.7 |
| C[C@H]1OC(=O)[C@]2(NC3CCC3)CC(F)(F)[C@@H](C)[C@H](/C=C/c3ccc(-c4ccccc4C#N)cn3)[C@H]12 [Example 36] | 4.1 |
| C[C@H]1OC(=O)[C@]2(N)CC(F)(F)[C@@H](C)[C@H](/C=C/c3ccc(-c4ccccc4C#N)cn3)[C@H]12 [Example 7] | 7.2 |
| Cc1cc(C(=O)N[C@@]23CC(F)(F)[C@@H](C)[C@H](/C=C/c4ccc(-c5ccccc5C#N)cn4)[C@@H]2[C@@H](C)OC3=O)no1 [Example 60] | 3.4 |
| CC(=O)N[C@@]12CC(F)(F)[C@@H](C)[C@H](/C=C/c3ccc(-c4ccccc4C#N)cn3)[C@@H]1[C@@H](C)OC2=O [Example 53] | 26 |
| Cc1oncc1C(=O)N[C@@]12CC(F)(F)[C@@H](C)[C@H](/C=C/c3ccc(-c4ccccc4C#N)cn3)[C@@H]1[C@@H](C)OC2=O [Example 61] | 33.3 |
| CC1[C@H](/C=C/c2ccc(-c3ccccc3C#N)cn2)C2[C@@H](C)OC(=O)[C@]2(C(O)c2cscn2)CC1(F)F (stereo partly drawn) [Example 20a] | 0.9 |
| C[C@H]1OC(=O)[C@]2(C(=O)O)CC(F)(F)[C@@H](C)[C@H](/C=C/c3ccc(-c4cccc(F)c4)cn3)[C@H]12 [Example 12] | 10.9 |
| C[C@H]1OC(=O)[C@]2(C3(O)CNC3)CC(F)(F)[C@@H](C)[C@H](/C=C/c3ccc(-c4ccccc4C#N)cn3)[C@H]12 [Example 24] | 40.7 |
| C[C@H]1OC(=O)[C@]2(N(C)C)CC(F)(F)[C@@H](C)[C@H](/C=C/c3ccc(-c4ccccc4C#N)cn3)[C@H]12 [Example 37] | 5.3 |
| C[C@H]1OC(=O)[C@]2(NCc3ccccn3)CC(F)(F)[C@@H](C)[C@H](/C=C/c3ccc(-c4ccccc4C#N)cn3)[C@H]12 [Example 46] | 3.1 |
| C[C@H]1OC(=O)[C@]2(NC(=O)NC3CCC3)CC(F)(F)[C@@H](C)[C@H](/C=C/c3ccc(-c4ccccc4C#N)cn3)[C@H]12 [Example 54] | 7.1 |
| C[C@H]1OC(=O)[C@]2(NCC3CC3)CC(F)(F)[C@@H](C)[C@H](/C=C/c3ccc(-c4ccccc4C#N)cn3)[C@H]12 [Example 50] | 2.7 |
| C[C@H]1OC(=O)[C@]2(NCC(C)(C)C)CC(F)(F)[C@@H](C)[C@H](/C=C/c3ccc(-c4ccccc4C#N)cn3)[C@H]12 [Example 51] | 10.2 |
| C[C@H]1OC(=O)[C@]2(N)CC(F)(F)[C@@H](C)[C@H](/C=C/c3ccc(-c4ccccc4-c4nnn[nH]4)cn3)[C@H]12 [Example 74] | 872 |
| C[C@H]1OC(=O)[C@]2(NC3COC3)CC(F)(F)[C@@H](C)[C@H](/C=C/c3ccc(-c4ccccc4C#N)cn3)[C@H]12 [Example 49] | 10.4 |
| C[C@H]1OC(=O)[C@]2(C(=O)NC3CCC3)CC(F)(F)[C@@H](C)[C@H](/C=C/c3ccc(-c4ccccc4C#N)cn3)[C@H]12 [Example 18] | 3.3 |
| C[C@H]1OC(=O)[C@]2(NCc3cnccn3)CC(F)(F)[C@@H](C)[C@H](/C=C/c3ccc(-c4ccccc4C#N)cn3)[C@H]12 [Example 45] | 4.4 |

Continued, values first:

| IC50 [nM] | SMILES |
| --- | --- |
| 3.3 | C[C@H]1OC(=O)[C@]2(CC#N)CC(F)(F)[C@@H](C)[C@H](/C=C/c3ccc(-c4ccccc4Cl)cn3)[C@H]12 [Example 25] |
| 2.2 | C[C@H]1OC(=O)[C@]2(C(O)c3cocn3)CC(F)(F)[C@@H](C)[C@H](/C=C/c3ccc(-c4ccccc4C#N)cn3)[C@H]12 (stereo partly drawn) [Example 22b] |
| 1.3 | C[C@H]1OC(=O)[C@]2(NCc3cncs3)CC(F)(F)[C@@H](C)[C@H](/C=C/c3ccc(-c4ccccc4C#N)cn3)[C@H]12 [Example 43] |
| 0.9 | Cc1nnc(C[C@@]23CC(F)(F)[C@@H](C)[C@H](/C=C/c4ccc(-c5ccccc5Cl)cn4)[C@@H]2[C@@H](C)OC3=O)o1 [Example 28] |
| 3.1 | C[C@H]1OC(=O)[C@]2(C(O)c3ncco3)CC(F)(F)[C@@H](C)[C@H](/C=C/c3ccc(-c4ccccc4C#N)cn3)[C@H]12 (single isomer, unassigned) [Example 23a] |
| 3.3 | Cc1cccc(-c2ccc(/C=C/[C@@H]3[C@@H]4[C@@H](C)OC(=O)[C@]4(N)CC(F)(F)[C@H]3C)nc2)c1C#N [Example 73] |
| 2.4 | CC1[C@H](/C=C/c2ccc(-c3ccccc3C#N)cn2)C2[C@@H](C)OC(=O)[C@]2(NCc2cocn2)CC1(F)F (stereo partly drawn) [Example 42] |
| 3 | C[C@H]1OC(=O)[C@]2(NC(=O)c3ccc(Cl)nc3)CC(F)(F)[C@@H](C)[C@H](/C=C/c3ccc(-c4ccccc4C#N)cn3)[C@H]12 [Example 59] |
| 2.7 | C[C@H]1OC(=O)[C@]2(CO)CC(F)(F)[C@@H](C)[C@H](/C=C/c3ccc(-c4ccccc4C#N)cn3)[C@H]12 [Example 15] |
| 3 | C[C@H]1OC(=O)[C@]2(C(O)c3ccccn3)CC(F)(F)[C@@H](C)[C@H](/C=C/c3ccc(-c4ccccc4C#N)cn3)[C@H]12 (stereo partly drawn) [Example 19] |
| 1.9 | CC1[C@H](/C=C/c2ccc(-c3ccccc3C#N)cn2)C2[C@@H](C)OC(=O)[C@]2(C(O)c2cocn2)CC1(F)F (stereo partly drawn) [Example 22a] |
| 2.5 | CC1[C@H](/C=C/c2ccc(-c3ccccc3C#N)cn2)C2[C@@H](C)OC(=O)[C@]2(C(O)c2nccs2)CC1(F)F (stereo partly drawn) [Example 21a] |
| 1.2 | C[C@H]1OC(=O)[C@]2(C(O)c3ncco3)CC(F)(F)[C@@H](C)[C@H](/C=C/c3ccc(-c4ccccc4C#N)cn3)[C@H]12 (single isomer, unassigned) [Example 23b] |
| 1.6 | C[C@H]1OC(=O)[C@@H]2CC(F)(F)[C@@H](C)[C@H](/C=C/c3ccc(-c4ccccc4C#N)cn3)[C@H]12 [Example 1] |
| 2.1 | C[C@H]1OC(=O)[C@]2(Cc3nnn(C)n3)CC(F)(F)[C@@H](C)[C@H](/C=C/c3ccc(-c4ccccc4Cl)cn3)C12 (stereo partly drawn) [Example 29a] |
| 1.7 | C[C@@H]1[C@H](/C=C/c2ccc(-c3ccccc3C#N)cn2)[C@H]2[C@@H](C)OC(=O)[C@]2(NC(=O)c2ccc(F)cc2)CC1(F)F [Example 62] |
| 2.5 | CO[C@@]12CC(F)(F)[C@@H](C)[C@H](/C=C/c3ccc(-c4ccccc4C#N)cn3)[C@@H]1[C@@H](C)OC2=O [Example 72] |
| 2 | C[C@H]1OC(=O)[C@]2(O)CC(F)(F)[C@@H](C)[C@H](/C=C/c3ccc(-c4ccccc4C#N)cn3)[C@H]12 [Example 8] |
| 2.2 | CC1[C@H](/C=C/c2ccc(-c3ccccc3C#N)cn2)C2[C@@H](C)OC(=O)[C@]2(NCc2nccs2)CC1(F)F (stereo partly drawn) [Example 39] |
| 1.2 | C[C@H]1OC(=O)[C@]2(C(O)c3cscn3)CC(F)(F)[C@@H](C)[C@H](/C=C/c3ccc(-c4ccccc4C#N)cn3)[C@H]12 (stereo partly drawn) [Example 20b] |
| 1.6 | C[C@H]1OC(=O)[C@]2(NCc3cscn3)CC(F)(F)[C@@H](C)[C@H](/C=C/c3ccc(-c4ccccc4C#N)cn3)[C@H]12 [Example 44] |
| 2.3 | C[C@H]1OC(=O)[C@]2(CN)CC(F)(F)[C@@H](C)[C@H](/C=C/c3ccc(-c4ccccc4C#N)cn3)[C@H]12 [Example 76] |
| 2.3 | C[C@H]1OC(=O)[C@]2(NC(=O)c3ccccc3)CC(F)(F)[C@@H](C)[C@H](/C=C/c3ccc(-c4ccccc4C#N)cn3)[C@H]12 [Example 63] |
| 2.8 | C[C@H]1OC(=O)[C@]2(NC(=O)c3nccs3)CC(F)(F)[C@@H](C)[C@H](/C=C/c3ccc(-c4ccccc4C#N)cn3)[C@H]12 [Example 57] |
| 1.4 | Cc1cn([C@@]23CC(F)(F)[C@@H](C)[C@H](/C=C/c4ccc(-c5ccccc5C#N)cn4)[C@@H]2[C@@H](C)OC3=O)nn1 [Example 32] |
| 1.2 | C[C@H]1OC(=O)[C@]2(C(O)c3nccs3)CC(F)(F)[C@@H](C)[C@H](/C=C/c3ccc(-c4ccccc4C#N)cn3)[C@H]12 (stereo partly drawn) [Example 21b] |

Source: patent US9340530B2, “Preparation and use of bicyclic himbacine derivatives as PAR-1 receptor antagonists” (Merck, Sharp & Dohme Corp., priority 2012, dated 2016)
